Assay results reported in ChEMBL document CHEMBL4219158 (Bioorg Med Chem Lett, 2018).
Active and inactive are the calls of the source. No cut-off for these calls is given here.

What was measured:
[1] = target: T1, 5-hydroxytryptamine receptor 2A (Homo sapiens, UniProt P28223); assay: Antagonist activity at human recombinant 5-HT2A receptor expressed in CHOK1 cells assessed as inhibition of serotonin-induced calcium release preincubated for 15 mins followed by 5-HT addition measured every 1.7 secs for 60 secs by calcium 4 dye-based FLIPR assay; type: functional, cell-based
[2] = target: T1, 5-hydroxytryptamine receptor 2A; assay: Agonist activity at human recombinant 5-HT2A receptor expressed in CHOK1 cells assessed as induction of calcium release incubated for 15 mins measured every 1.7 secs for 60 secs by calcium 4 dye-based FLIPR assay; type: functional, cell-based

T1 sequence (P28223 whole entry): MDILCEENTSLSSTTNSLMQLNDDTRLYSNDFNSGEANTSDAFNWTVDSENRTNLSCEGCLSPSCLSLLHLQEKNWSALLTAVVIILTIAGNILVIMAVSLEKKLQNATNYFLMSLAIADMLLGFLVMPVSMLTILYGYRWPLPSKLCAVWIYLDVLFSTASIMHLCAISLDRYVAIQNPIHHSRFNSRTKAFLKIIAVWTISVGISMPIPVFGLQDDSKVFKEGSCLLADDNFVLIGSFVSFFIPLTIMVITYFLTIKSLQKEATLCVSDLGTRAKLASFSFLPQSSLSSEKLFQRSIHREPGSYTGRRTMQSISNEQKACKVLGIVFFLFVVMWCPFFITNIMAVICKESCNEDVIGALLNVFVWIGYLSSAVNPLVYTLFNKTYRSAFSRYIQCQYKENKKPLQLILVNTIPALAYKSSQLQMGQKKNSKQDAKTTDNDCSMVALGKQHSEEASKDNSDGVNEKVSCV

Compound	IC50 [1] [nM]	inhibition [1]	Activity [2]
COc1c(OCCOCCOc2cn(CCOCCOc3cccc([C@H](O)C4CCN(CCc5ccc(F)cc5)CC4)c3OC)nn2)cccc1[C@H](O)C1CCN(CCc2ccc(F)cc2)CC1	36.5	Dose-dependent effect	inactive
COc1c(OCCOCCOCCOCCOCCOCCOc2cccc(C(=O)C3CCN(CCc4ccc(F)cc4)CC3)c2OC)cccc1C(=O)C1CCN(CCc2ccc(F)cc2)CC1	39.8		
COc1c(OCCOCCOCCOCCOCCOc2cccc(C(=O)C3CCN(CCc4ccc(F)cc4)CC3)c2OC)cccc1C(=O)C1CCN(CCc2ccc(F)cc2)CC1	29.5		
C#CCOCCOCCOc1cccc([C@H](O)C2CCN(CCc3ccc(F)cc3)CC2)c1OC	56.6	Dose-dependent effect	inactive
COc1c(OCCOCCN=[N+]=[N-])cccc1[C@H](O)C1CCN(CCc2ccc(F)cc2)CC1	46.7	Dose-dependent effect	inactive
